The target in one experiment is T1, PTPN1 (PTP1B) (Homo sapiens, UniProt P18031).
T1 construct: purchased
T1 sequence (P18031 1-435): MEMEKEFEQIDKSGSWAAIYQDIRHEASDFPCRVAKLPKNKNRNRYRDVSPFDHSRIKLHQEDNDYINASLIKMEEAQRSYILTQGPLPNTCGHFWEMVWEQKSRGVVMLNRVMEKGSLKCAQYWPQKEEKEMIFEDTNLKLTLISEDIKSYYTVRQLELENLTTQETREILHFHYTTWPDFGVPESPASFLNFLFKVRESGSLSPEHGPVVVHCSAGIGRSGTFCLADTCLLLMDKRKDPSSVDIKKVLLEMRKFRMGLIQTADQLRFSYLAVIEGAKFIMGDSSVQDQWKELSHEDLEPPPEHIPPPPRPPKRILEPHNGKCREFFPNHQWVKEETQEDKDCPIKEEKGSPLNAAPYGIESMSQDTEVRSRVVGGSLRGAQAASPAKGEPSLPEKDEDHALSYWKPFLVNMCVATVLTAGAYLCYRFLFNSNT
Briefly: pNPP hydrolysis by PTPN1 (PTP1B) phosphatase. In kind it is biochemical. The following applies: untitled table after Table 4; mean, SEM in wrapped line.

In another experiment the target is PTPRS (Homo sapiens, UniProt Q13332). The experiment in a line: pNPP hydrolysis by recombinant PTPRS phosphatase. In kind it is biochemical. The text has this:
(§1) Human […] ([…]-pY-[…]) phosphopeptide (Pierce/ThermoFisher) were synthesized.

For the next experiment, the target named is T2, PTPRJ (Homo sapiens, UniProt Q12913).
T2 construct: purchased
T2 sequence (Q12913 36-1337): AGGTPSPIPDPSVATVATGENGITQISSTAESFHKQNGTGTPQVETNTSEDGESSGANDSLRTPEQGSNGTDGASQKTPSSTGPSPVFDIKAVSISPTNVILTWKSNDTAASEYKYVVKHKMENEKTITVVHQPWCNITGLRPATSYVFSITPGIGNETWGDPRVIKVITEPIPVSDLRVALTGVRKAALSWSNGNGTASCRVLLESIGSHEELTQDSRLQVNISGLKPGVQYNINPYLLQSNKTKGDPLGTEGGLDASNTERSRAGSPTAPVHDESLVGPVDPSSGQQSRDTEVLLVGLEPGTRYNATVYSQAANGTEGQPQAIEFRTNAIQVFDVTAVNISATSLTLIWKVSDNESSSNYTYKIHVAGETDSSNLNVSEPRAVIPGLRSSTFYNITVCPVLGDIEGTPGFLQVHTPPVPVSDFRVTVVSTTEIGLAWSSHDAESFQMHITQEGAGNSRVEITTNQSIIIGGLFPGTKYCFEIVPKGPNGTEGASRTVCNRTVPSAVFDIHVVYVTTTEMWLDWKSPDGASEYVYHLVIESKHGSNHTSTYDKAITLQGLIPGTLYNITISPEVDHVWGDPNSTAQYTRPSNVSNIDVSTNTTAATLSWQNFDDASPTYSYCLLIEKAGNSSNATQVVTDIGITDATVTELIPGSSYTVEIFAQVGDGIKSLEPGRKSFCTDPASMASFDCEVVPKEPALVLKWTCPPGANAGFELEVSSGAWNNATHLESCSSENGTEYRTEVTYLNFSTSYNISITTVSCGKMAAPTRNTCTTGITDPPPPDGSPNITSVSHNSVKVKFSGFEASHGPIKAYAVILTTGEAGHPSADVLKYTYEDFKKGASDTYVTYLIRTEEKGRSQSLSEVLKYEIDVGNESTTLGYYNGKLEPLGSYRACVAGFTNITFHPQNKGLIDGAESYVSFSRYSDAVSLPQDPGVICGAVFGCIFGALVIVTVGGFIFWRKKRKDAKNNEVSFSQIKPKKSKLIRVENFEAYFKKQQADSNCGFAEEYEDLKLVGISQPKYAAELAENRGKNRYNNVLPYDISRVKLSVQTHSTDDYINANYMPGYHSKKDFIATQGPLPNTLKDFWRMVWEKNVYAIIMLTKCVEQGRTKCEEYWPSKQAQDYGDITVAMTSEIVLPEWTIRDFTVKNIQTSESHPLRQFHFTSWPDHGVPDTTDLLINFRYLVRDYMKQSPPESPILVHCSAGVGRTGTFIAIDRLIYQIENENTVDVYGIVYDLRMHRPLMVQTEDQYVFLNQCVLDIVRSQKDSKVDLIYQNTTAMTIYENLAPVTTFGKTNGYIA
Briefly: pNPP hydrolysis by PTPRJ phosphatase. In kind it is biochemical.
Text: as §1

The next experiment deals with PTPRF (Homo sapiens, UniProt P10586). Briefly: pNPP hydrolysis by recombinant PTPRF phosphatase.
Another experiment concerns the target recombinant PTPRD (Homo sapiens, UniProt P23468). Briefly: pNPP hydrolysis by recombinant PTPRD phosphatase.
The mark [1] stands for this setting: Table 4, mean (SEM) of three independent experiments, * = instability, no valid triplicate.
Setting [2] is: untitled table after Table 4, mean, SEM in wrapped line.
Where [3] appears, read: PTPRF IC50, Table 4, mean (SEM) of three independent experiments, * = instability, no valid triplicate.
Setting [4] is: PTPRF IC50, untitled table after Table 4, mean, SEM in wrapped line.
Where [5] appears, read: read-out: PTPRD IC50, untitled table after Table 4, mean, SEM in wrapped line, compounds with PTPRD IC50 <5 μM.
[6] abbreviates: PTPRD IC50, Table 4, mean (SEM) of three independent experiments, * = instability, no valid triplicate.
[7] abbreviates: PTPRD IC50, untitled table after Table 4, mean, SEM in wrapped line, compounds with PTPRD IC50 <5 μM.

Where two headings read alike, the source gives them in different places.

Chain of recombinant PTPRD (P23468 21-1912): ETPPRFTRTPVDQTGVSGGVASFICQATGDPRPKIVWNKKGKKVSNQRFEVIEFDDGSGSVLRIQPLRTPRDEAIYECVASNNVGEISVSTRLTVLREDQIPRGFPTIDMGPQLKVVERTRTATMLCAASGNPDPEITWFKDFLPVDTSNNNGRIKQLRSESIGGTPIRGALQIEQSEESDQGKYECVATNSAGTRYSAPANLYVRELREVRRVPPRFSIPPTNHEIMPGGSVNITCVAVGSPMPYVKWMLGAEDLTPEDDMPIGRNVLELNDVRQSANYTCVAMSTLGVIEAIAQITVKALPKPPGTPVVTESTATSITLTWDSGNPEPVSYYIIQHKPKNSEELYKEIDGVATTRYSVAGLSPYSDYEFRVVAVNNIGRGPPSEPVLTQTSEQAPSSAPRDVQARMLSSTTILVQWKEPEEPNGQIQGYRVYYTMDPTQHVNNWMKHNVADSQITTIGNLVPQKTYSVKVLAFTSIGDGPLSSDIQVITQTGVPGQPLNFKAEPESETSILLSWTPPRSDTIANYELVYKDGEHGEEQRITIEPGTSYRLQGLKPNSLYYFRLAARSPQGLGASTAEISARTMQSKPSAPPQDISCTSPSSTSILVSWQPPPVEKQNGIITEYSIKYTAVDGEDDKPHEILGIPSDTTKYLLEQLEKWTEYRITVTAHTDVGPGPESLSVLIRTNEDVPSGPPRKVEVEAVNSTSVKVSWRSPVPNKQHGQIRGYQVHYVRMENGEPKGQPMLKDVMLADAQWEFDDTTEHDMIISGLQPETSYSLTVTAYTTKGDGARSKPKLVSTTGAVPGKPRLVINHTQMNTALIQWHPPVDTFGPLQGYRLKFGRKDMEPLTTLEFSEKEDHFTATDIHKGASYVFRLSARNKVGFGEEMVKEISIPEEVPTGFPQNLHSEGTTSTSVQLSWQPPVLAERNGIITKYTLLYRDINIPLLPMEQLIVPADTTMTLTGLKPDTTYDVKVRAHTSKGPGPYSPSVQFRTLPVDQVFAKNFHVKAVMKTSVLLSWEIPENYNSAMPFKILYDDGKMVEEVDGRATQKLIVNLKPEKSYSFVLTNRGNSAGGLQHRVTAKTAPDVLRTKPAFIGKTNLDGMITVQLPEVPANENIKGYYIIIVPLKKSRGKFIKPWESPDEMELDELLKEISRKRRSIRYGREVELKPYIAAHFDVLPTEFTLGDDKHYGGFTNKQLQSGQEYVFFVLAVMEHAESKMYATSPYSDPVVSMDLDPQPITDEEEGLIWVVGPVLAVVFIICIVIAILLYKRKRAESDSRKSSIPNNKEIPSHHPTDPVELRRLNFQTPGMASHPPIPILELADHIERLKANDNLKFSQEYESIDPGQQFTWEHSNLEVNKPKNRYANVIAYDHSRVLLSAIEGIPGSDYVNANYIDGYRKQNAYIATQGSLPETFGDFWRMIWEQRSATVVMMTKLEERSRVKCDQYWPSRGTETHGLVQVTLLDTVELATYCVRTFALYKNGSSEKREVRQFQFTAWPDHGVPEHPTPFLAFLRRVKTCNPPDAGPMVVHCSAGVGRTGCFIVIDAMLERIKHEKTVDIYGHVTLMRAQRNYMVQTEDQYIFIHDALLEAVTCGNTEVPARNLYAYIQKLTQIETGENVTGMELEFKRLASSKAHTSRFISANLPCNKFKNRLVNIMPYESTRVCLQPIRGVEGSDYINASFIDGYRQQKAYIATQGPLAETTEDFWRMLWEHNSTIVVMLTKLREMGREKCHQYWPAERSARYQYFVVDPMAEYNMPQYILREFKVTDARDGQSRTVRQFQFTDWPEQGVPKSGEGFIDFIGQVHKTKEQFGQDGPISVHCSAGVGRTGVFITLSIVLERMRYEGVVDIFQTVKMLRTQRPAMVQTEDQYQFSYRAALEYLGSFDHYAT
Chain of PTPRS (Q13332 30-1948, species assumed): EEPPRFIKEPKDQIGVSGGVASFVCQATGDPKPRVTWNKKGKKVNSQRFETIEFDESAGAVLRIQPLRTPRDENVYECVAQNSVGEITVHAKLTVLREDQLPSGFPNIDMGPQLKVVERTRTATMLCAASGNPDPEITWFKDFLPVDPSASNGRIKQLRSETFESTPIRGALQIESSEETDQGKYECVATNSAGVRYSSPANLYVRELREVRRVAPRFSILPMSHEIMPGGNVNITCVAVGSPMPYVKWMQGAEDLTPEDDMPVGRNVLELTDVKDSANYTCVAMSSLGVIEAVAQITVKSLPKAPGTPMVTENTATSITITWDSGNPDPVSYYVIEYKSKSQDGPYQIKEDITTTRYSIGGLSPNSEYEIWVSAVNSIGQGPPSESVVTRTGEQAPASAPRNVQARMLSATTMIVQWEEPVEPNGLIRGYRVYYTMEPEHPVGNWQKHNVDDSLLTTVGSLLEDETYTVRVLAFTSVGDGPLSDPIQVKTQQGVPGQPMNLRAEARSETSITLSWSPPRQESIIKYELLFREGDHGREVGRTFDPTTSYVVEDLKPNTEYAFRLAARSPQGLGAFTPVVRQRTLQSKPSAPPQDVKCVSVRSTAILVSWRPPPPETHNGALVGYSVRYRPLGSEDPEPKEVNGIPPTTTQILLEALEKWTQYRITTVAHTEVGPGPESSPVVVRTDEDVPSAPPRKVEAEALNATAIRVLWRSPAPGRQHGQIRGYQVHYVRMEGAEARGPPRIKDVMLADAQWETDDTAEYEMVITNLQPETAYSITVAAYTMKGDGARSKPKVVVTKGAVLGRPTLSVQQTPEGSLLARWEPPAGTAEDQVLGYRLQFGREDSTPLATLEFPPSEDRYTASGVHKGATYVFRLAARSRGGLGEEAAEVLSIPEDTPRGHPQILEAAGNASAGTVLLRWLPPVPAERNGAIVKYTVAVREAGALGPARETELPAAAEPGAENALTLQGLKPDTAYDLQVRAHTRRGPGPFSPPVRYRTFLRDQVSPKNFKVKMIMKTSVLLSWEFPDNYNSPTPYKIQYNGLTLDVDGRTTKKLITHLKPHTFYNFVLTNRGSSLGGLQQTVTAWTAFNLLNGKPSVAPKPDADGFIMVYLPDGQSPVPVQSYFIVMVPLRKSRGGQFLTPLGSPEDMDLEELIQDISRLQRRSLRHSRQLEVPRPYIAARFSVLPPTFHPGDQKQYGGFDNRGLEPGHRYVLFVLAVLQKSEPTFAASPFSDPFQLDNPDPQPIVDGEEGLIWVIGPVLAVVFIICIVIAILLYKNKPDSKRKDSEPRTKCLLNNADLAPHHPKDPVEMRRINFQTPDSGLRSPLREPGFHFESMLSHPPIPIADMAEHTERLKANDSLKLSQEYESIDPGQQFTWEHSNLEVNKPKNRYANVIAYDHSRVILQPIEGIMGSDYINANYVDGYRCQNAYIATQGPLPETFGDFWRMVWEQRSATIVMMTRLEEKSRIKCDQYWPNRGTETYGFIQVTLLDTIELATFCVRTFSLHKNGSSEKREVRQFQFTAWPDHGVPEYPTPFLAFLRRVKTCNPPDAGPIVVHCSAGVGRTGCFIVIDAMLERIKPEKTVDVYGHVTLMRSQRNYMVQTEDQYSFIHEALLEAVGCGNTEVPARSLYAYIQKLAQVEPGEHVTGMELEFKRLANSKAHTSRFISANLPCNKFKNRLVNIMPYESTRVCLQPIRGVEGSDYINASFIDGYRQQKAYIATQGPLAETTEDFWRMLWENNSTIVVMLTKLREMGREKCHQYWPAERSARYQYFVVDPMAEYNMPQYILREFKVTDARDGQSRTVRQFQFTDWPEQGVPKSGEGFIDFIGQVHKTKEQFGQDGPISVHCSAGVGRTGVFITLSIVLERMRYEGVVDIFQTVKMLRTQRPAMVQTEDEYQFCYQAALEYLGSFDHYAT
Procedure for PTPRF: (§2) Phosphatase assays: Data for each assay type (3 wells/experimental condition, read using a Spectromax plate reader) was plotted vs time, and results derived from the slopes of linear regions were reported from triplicate independent experiments.
(§3) For assays of compound ligands that were likely pseudo-irreversible, 18 min preincubations were also added. For work determining the effect of flavonoids on pNPP hydrolysis, a 96 well half-area plate was prepared by first filling each well to be tested with 18 μL of 50 μM pNPP and 25 uL of running buffer, and 2 μL of DMSO containing the desired concentration of flavonoid and/or peptide. PTPRD phosphatase was diluted 1:50 in a dilution buffer.
Procedure for recombinant PTPRD: as §2, §3

What is called IC50 is the concentration that inhibits the measured activity by half. With `CCCCOc1cc2c(c(C=O)c1OC)CC(O)OC2=O` (stereo not shown) [Compound 1, reference compound], the IC50 against PTPN1 (PTP1B) stood at 215 µM; at PTPRS (setting [1]), 1.27 µM; on PTPRS (setting [2]), 1.27 µM; against PTPRJ (setting [1]) it was 27.4 µM; against PTPRJ (setting [2]), 27.4 µM; at PTPRF (setting [3]), 3.95 µM. For the same compound, the IC50 at PTPRF (setting [4]) was 3.95 µM; on recombinant PTPRD (read-out: PTPRD IC50, Table 4, mean (SEM) of three independent experiments, * = instability, no valid triplicate), 2.27 µM; on recombinant PTPRD (setting [5]), 2.27 µM.

Take `COc1c(OCc2ccccc2)cc2c(c1C=O)CC(O)OC2=O` (stereo not shown) [Compound 27, 7-(Benzyloxy)-3-hydroxy-6-methoxy-1-oxoisochromane-5-carbaldehyde]: the IC50 on PTPN1 (PTP1B) was 171 µM; at PTPRS (setting [1]) it was 1.6 µM; on PTPRS (setting [2]), 1.6 µM; against PTPRJ (setting [1]), 47.2 µM; at PTPRJ (setting [2]), 47.2 µM; at PTPRF (setting [3]) it was 3.62 µM. The IC50 on PTPRF (setting [4]) turned out to be 3.62 µM; at recombinant PTPRD (setting [5]), 1.64 µM.

With `COc1c(OCc2ccc(C)cc2)cc2c(c1C=O)CC(O)OC2=O` (stereo not shown) [Compound 29, 3-Hydroxy-6-methoxy-7-((4-methylbenzyl)oxy)-1-oxoisochromane-5-carbaldehyde], the IC50 against PTPN1 (PTP1B) is 148 µM; at PTPRS (setting [1]) it was 3.58 µM; at PTPRS (setting [2]) it was 3.58 µM; against PTPRJ (setting [1]), 37.7 µM; at PTPRJ (setting [2]), 37.7 µM; on PTPRF (setting [3]) it was 6.57 µM. For the same compound, the IC50 on PTPRF (setting [4]) is 6.57 µM; at recombinant PTPRD (setting [6]) it was 3.8 µM; at recombinant PTPRD (setting [7]) it was 3.8 µM.

Take `COc1c(OCc2ccc(Br)cc2)cc2c(c1C=O)CC(O)OC2=O` (stereo not shown) [Compound 39, 7-((4-Bromobenzyl)oxy)-3-hydroxy-6-methoxy-1-oxoisochromane-5-carbaldehyde]: the IC50 on PTPRS (setting [1]) was 5 µM; on PTPRS (setting [2]) it was 5 µM; against PTPRJ (setting [1]), 29.9 µM; against PTPRJ (setting [2]), 29.9 µM; at PTPRF (setting [3]), 3.82 µM; at PTPRF (setting [4]), 3.82 µM.

On to `COc1c(OCc2ccc(Cl)cc2Cl)cc2c(c1C=O)CC(O)OC2=O` (stereo not shown) [Compound 40, 7-((2,4-Dichlorobenzyl)oxy)-3-hydroxy-6-methoxy-1-oxoisochromane-5-carbaldehyde], for which the IC50 on PTPN1 (PTP1B) came to 76 µM; on PTPRS (setting [1]) it was 1.03 µM; on PTPRS (setting [2]) it was 1.03 µM; on PTPRJ (setting [1]), 14.6 µM; on PTPRJ (setting [2]), 14.6 µM; on PTPRF (setting [3]), 3.55 µM. Besides, the IC50 at PTPRF (setting [4]) stood at 3.55 µM.

`COc1c(OCc2c(Cl)cc(Cl)cc2Cl)cc2c(c1C=O)CC(O)OC2=O` (stereo not shown) [Compound 42]: the IC50 on PTPN1 (PTP1B) worked out at 28.9 µM; at PTPRS (setting [1]) it was 2.15 µM; on PTPRS (setting [2]) it was 2.2 µM; on PTPRJ (setting [1]), 23.6 µM; against PTPRJ (setting [2]), 23.6 µM; at recombinant PTPRD (setting [6]), 2.47 µM. Also, the half-inhibitory concentration (IC50) at recombinant PTPRD (setting [7]) was 2.5 µM.

For `COc1c(OCc2ccc(Oc3ccc(F)cc3)cc2)cc2c(c1C=O)CC(O)OC2=O` (stereo not shown) [Compound 44, 7-((4-(4-Fluorophenoxy)benzyl)oxy)-3-hydroxy-6-methoxy-1-oxoisochromane-5-carbaldehyde], the IC50 at recombinant PTPRD (setting [6]) and at recombinant PTPRD (setting [7]) was 2.49 µM each time.

Take `COc1c(OCc2ccc(C)s2)cc2c(c1C=O)CC(O)OC2=O` (stereo not shown) [Compound 46, 3-Hydroxy-6-methoxy-7-((5-methylthiophen-2-yl)methoxy)-1-oxoisochromane-5-carbaldehyde]: the IC50 at PTPRS (setting [1]) was determined as 1.4 µM; on PTPRS (setting [2]), 1.4 µM; against PTPRJ (setting [1]), 19.8 µM; on PTPRJ (setting [2]), 19.8 µM; at PTPRF (setting [3]), 3.5 µM; on PTPRF (setting [4]), 3.5 µM. Also, the IC50 at recombinant PTPRD (setting [6]) and on recombinant PTPRD (setting [7]) was 0.92 µM throughout.

Turning to `COc1c(OCc2ccc3ccccc3c2)cc2c(c1C=O)CC(O)OC2=O` (stereo not shown) [Compound 49, 3-Hydroxy-6-methoxy-7-(naphthalen-2-ylmethoxy)-1-oxoisochromane-5-carbaldehyde], the IC50 on PTPN1 (PTP1B) was found to be 221 µM; at PTPRS (setting [1]), 4.61 µM; at PTPRS (setting [2]) it was 4.61 µM; against PTPRJ (setting [1]), 33.3 µM; at PTPRJ (setting [2]), 33.3 µM; at PTPRF (setting [3]), 5.87 µM. On PTPRF (setting [4]), the IC50 turned out to be 5.87 µM.

`COc1c(OCCc2ccccc2)cc2c(c1C=O)CC(O)OC2=O` (stereo not shown) [Compound 50, 3-Hydroxy-6-methoxy-1-oxo-7-phenethoxyisochromane-5-carbaldehyde]: the IC50 on PTPN1 (PTP1B) turned out to be 219 µM; at PTPRS (setting [1]), 3.03 µM; on PTPRS (setting [2]), 3.03 µM; against PTPRJ (setting [1]) it was 54.8 µM; against PTPRJ (setting [2]), 54.8 µM; on recombinant PTPRD (setting [6]), 4.57 µM. Further, the IC50 at recombinant PTPRD (setting [7]) is 4.57 µM.

On to `COc1c(OCCCc2ccccc2)cc2c(c1C=O)CC(O)OC2=O` (stereo not shown) [Compound 52, 3-Hydroxy-6-methoxy-1-oxo-7-(3-phenylpropoxy)isochromane-5-carbaldehyde], for which the IC50 on PTPRS (setting [1]) turned out to be 0.93 µM; at PTPRS (setting [2]), 0.93 µM; at PTPRF (setting [3]), 4.41 µM; on PTPRF (setting [4]) it was 4.41 µM.

As to `COc1c(OCCCCc2ccc(Cl)cc2)cc2c(c1C=O)CC(O)OC2=O` (stereo not shown) [Compound 53, 7-(4-(4-Chlorophenyl)butoxy)-3-hydroxy-6-methoxy-1-oxoisochromane-5-carbaldehyde], the concentration for half-maximal inhibition (IC50) at PTPN1 (PTP1B) was 65.7 µM; at PTPRS (setting [1]), 3.09 µM; on PTPRS (setting [2]), 3.09 µM; at PTPRJ (setting [1]), 28.9 µM; against PTPRJ (setting [2]), 28.9 µM; on PTPRF (setting [3]) it was 5.67 µM. Also, at PTPRF (setting [4]), the IC50 stood at 5.67 µM.

Regarding `COc1c(OCCCC(F)(F)F)cc2c(c1C=O)CC(O)OC2=O` (stereo not shown) [Compound 63, 3-Hydroxy-6-methoxy-1-oxo-7-(4,4,4-trifluorobutoxy)isochromane-5-carbaldehyde], the IC50 at PTPRJ (setting [2]) worked out at 108 µM.

Take `COc1c(OCC2CC2)cc2c(c1C=O)CC(O)OC2=O` (stereo not shown) [Compound 64, 7-Cyclopropylmethoxy-3-hydroxy-6-methoxy-1-oxo-isochroman-5-carbaldehyde]: the IC50 on recombinant PTPRD (setting [6]) and on recombinant PTPRD (setting [7]) was 4.18 µM throughout.

For the compound `COc1c(OCC2CCCCC2)cc2c(c1C=O)CC(O)OC2=O` (stereo not shown) [Compound 68, 7-Cyclohexylmethoxy-3-hydroxy-6-methoxy-1-oxo-isochroman-5-carbaldehyde], the IC50 against PTPN1 (PTP1B) was 101 µM; on PTPRS (setting [1]) it was 1.06 µM; at PTPRS (setting [2]), 1.06 µM; at PTPRJ (setting [2]), 0.56 µM; at PTPRF (setting [3]) it was 0.76 µM; on PTPRF (setting [4]), 0.76 µM.

Turning to `COc1c(OCC2CCCCCC2)cc2c(c1C=O)CC(O)OC2=O` (stereo not shown) [Compound 69], the IC50 against PTPN1 (PTP1B) came out at 27.1 µM; on PTPRS (setting [1]), 0.77 µM; on PTPRS (setting [2]), 0.77 µM; against PTPRJ (setting [1]), 9.81 µM; on PTPRJ (setting [2]), 9.8 µM; on PTPRF (setting [3]), 1.16 µM. Further, the IC50 at PTPRF (setting [4]) turned out to be 1.16 µM.

These data come from patent US11987564B2, “PTPRD inhibitors and uses thereof” (United States Government as represented by the Department …, priority 2021, dated 2024).
